One test addresses T1, 5-LO enzyme (Homo sapiens, UniProt P09917).
T1 sequence (P09917 1-674): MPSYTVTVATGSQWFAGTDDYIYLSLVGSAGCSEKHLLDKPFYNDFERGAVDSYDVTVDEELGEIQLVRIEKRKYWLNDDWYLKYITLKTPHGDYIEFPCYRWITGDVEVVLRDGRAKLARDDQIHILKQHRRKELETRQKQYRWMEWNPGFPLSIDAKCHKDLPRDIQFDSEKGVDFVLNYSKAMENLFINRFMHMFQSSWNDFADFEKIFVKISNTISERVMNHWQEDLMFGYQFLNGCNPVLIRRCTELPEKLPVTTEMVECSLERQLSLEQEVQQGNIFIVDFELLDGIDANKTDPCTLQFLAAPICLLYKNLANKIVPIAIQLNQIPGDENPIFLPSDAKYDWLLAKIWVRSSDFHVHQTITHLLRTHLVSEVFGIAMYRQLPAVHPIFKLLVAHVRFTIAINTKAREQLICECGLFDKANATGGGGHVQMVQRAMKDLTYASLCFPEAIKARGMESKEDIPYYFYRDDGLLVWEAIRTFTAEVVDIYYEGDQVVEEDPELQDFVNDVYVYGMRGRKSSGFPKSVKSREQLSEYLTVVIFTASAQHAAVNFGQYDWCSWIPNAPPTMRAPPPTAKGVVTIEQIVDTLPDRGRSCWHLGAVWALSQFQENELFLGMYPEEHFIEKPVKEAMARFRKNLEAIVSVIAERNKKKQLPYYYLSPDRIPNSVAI
In words: 5-LO enzyme inhibition. It is filed as biochemical.

For test [1], the target named is T2, rabbit reticulocyte 15-LO (Oryctolagus cuniculus, UniProt P12530).
T2 construct: rabbit reticulocyte 15-LO; from tissue; host or cells: rabbit reticulocytes
T2 sequence (P12530 1-663): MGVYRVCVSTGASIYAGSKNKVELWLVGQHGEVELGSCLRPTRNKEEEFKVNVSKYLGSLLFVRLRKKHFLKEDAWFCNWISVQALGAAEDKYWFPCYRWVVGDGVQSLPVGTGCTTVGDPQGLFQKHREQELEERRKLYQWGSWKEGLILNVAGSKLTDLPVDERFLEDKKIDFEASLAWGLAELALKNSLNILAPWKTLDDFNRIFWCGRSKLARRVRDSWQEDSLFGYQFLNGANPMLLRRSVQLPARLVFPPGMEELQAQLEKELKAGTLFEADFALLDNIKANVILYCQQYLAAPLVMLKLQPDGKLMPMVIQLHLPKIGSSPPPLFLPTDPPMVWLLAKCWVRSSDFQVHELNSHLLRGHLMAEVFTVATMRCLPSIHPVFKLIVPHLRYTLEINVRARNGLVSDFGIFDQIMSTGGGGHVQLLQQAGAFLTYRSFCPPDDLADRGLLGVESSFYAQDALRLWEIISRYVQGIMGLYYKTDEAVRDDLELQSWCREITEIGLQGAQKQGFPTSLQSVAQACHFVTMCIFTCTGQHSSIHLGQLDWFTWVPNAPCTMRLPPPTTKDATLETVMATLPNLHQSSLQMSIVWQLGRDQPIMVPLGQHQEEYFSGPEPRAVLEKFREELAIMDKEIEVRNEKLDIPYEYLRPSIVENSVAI
Description: 15-LO inhibition, rabbit reticulocyte 15-LO with linoleic acid substrate, HPLC method of Auerbach et al. The test is classed as biochemical. As to the method: Two in vitro assays were utilized, both utilizing rabbit reticulocyte 15-LO, and linoleic acid as substrate, to enzymatically produce a peroxide oxidation product known as 13(S)-HPODE. N-Benzoyl leucomethylene blue was utilized as a calorimetric reagent for detection and quantification of the peroxide formation. Also, HPLC was utilized to quantify the oxidation following incubation at 4° C. for 10 minutes.

The subject of test [2] is atherosclerotic lesions in cholesterol-fed New Zealand White rabbits. In words: Atherosclerosis in cholesterol-fed rabbits, 12-week study (aortic lesion coverage, aortic cholesterol content). The test is classed as in vivo, rabbit. Conditions: 350 mg/kg/day in food, 12 weeks. An excerpt:
As further evidence of 15-LO inhibitors being effective to prevent and treat inflammation and atherosclerosis in animals, one representative compound has been extensively evaluated in cholesterol-fed rabbits over a 12-week period.
Specific pathogen-free New Zealand White rabbits (≈2.5 kg) were obtained from Myrtle's Rabbitry (Thompson Station, Tenn.). The animals were fed a standard laboratory diet (Ralston Purina, St. Louis, Mo.) and were allowed to become acclimatized for 7 days before initiation of the study, at which time two groups of rabbits (n=10 each) were begun on a diet enriched with cholesterol (0.25% wt/wt), peanut oil (3% wt/wt), and coconut oil (3% wt/wt), with a small amount of applesauce mixed into the food to enhance palatability. This diet was designed to produce a modest hypercholesterolemic response. The control group received no additional treatment. […] Rabbits were permitted access to 40 g of food at ≈12 hour intervals via automated feeders, and diet intake was monitored every day such that the animals received 175 mg/kg/bid. Water was available ad libitum. Body weights were measured at regular intervals throughout the 12-week study. Blood samples were obtained at the indicated intervals for determination of hematocrit and plasma lipid concentrations.
Rabbits were euthanized by an overdose of sodium pentobarbital (150 mg/kg^-1) and exsanguinated via the abdominal aorta. Aortas were removed from the valve to the ileal bifurcation, opened to expose the intima, and photographed with a Polaroid camera. By use of these photographs, the areas of grossly discernible atherosclerosis were manually integrated on a digitizing pad and calculated with SigmaScan (Jandel Scientific). Aortas were visually subdivided into three areas: arch (aortic valve to first intercostal), thoracic aorta (first intercostal to diaphragm area), and abdominal aorta (diaphragm to ileal bifurcation). In addition to extracting aortas, body tissues were surveyed for indications of adverse reactions.
Weighed segments of each aortic region (arch, thoracic, and abdominal) were extracted. Esterified and unesterified cholesterol content of aortic tissue were determined by gas chromatography using 5-α-cholestane as an internal standard.

The mark [3] stands for this setting: Table 4, indoles, read-out: 5-LO IC50.
Where [4] appears, read: Table 4, indoles, read-out: 15-LO IC50.
Where [5] appears, read: Table 2, benzimidazoles, read-out: 5-LO IC50.
Setting [6] is: read-out: 5-LO inhibitory activity IC50.
Where [7] appears, read: Table 2, benzimidazoles, read-out: 15-LO IC50.
Setting [8] is: Table 1, HPLC method, read-out: 15-LO IC50.
[9] abbreviates: Table 1, read-out: 5-LO (concentration to inhibit 50% of 5-LO activity).

Like-named read-outs stand apart in the source and are kept apart here.

As to `O=C(Nc1cccc(Cl)c1)Sc1c[nH]c2ccccc12`, the IC50 at 5-LO enzyme (setting [3]) is greater than 10 µM; in test [1] (setting [4]), 4 µM.
In the case of `Clc1ccc(-c2nc3ccc(Cl)cc3[nH]2)cc1` [2-(4-chlorophenyl)-5-chlorobenzimidazole], the IC50 at 5-LO enzyme (setting [5]) was greater than 10 µM; at 5-LO enzyme (setting [6]) it was greater than 10 µM; in test [1] (setting [7]) it was 0.65 µM. Also, the “15-LO to 5-LO ratio of activities” value in test [1] (15-LO versus 5-LO) was “greater than 10”.
On to `c1ccc2c(c1)[nH]c1c3ccccc3[s+]cc21` [drawing 19 (R2=H, R3=H, R4=H, R5=H, R8=H)], for which the IC50 in test [1] (setting [8]) is 1 to 4 µM.
For `Cc1ccc2c(c1)[s+]cc1c3ccccc3[nH]c21` [drawing 19 (R2=H, R3=H, R4=H, R5=CH3, R8=H)], the IC50 in test [1] (setting [8]) fell in the range of 1 to 4 µM.
Consider `O=[N+]([O-])c1ccc2[s+]cc3c4ccccc4[nH]c3c2c1` [drawing 19 (R2=H, R3=H, R4=NO2, R5=H, R8=H)], for which the IC50 at 5-LO enzyme (setting [9]) is greater than 10 µM; in test [1] (setting [8]) it was 0.48 µM.
For `Cc1[s+]c2ccccc2c2[nH]c3ccccc3c12` [drawing 19 (R2=H, R3=H, R4=H, R5=H, R8=CH3)], the IC50 in test [1] (setting [8]) was greater than 25 µM.
On to `CCCCCC#CCC#CCC#CCC#CCCCC(=O)O` [CH3 (CH2)3 (CH2 --C≡C--)4 (CH2)3 --COOH], for which the IC50 at 5-LO enzyme (Table 5, read-out: 5-LO IC50) is greater than 10 µM; in test [1] (Table 5, read-out: 15-LO IC50), 0.75 µM.
For `c1ccc2c(c1)SCc1c-2[nH]c2ccccc12` [Compound A, 6,11-dihydro[1]benzothiopyrano[4,3-b]-indole], the IC50 on 5-LO enzyme (setting [9]) and at 5-LO enzyme (setting [6]) was greater than 100 µM throughout. Further, the “cholesterol esters, abdominal region” value in test [2] (abdominal (control about 0.6)) is on record as “no detectable cholesterol esters”. Besides, the “lesion coverage, abdominal region” value in test [2] (abdominal aorta (control 5%)) is listed as “about 1%”. Also, the “unesterified cholesterol, thoracic and abdominal regions” value in test [2] (about the same as control) is 0.7-0.8 mg/g tissue wet weight. For the same compound, the “lesion coverage of intima, arch area” value in test [2] (aortic arch (control about 15%)) is reported as “no lesion coverage”. In addition, the “unesterified cholesterol, arch region” value in test [2] (arch (control about 1.4)) is “about 0.8 mg/g”. The “cholesterol esters, arch region” value in test [2] (arch (control about 2)) is on record as “no detectable cholesterol esters”. Besides, the “cholesterol esters, thoracic region” value in test [2] (thoracic (control none)) was “no detectable cholesterol esters”. Besides, the “lesions, thoracic region” value in test [2] (thoracic aorta) is listed as “No detectable lesions”.
In the case of `COc1ccc2[nH]c3c(c2c1)COc1ccccc1-3`, the IC50 at 5-LO enzyme (setting [9]) is greater than 50 µM; in test [1] (setting [8]) it was 4 µM.
`c1ccc2c(c1)[nH]c1c3cc4c(cc3[s+]cc21)CCCC4`: the IC50 is greater than 32 µM at 5-LO enzyme (setting [9]) and 0.5 to 2 µM in test [1] (setting [8]).
As for `c1ccc2c(c1)c[s+]c1c3ccccc3[nH]c21` [drawing 20 (R2=H, R3=H, R4=H, R5=H, R8=H)], the IC50 at 5-LO enzyme (setting [9]) amounted to 22 µM; in test [1] (setting [8]), 3.8 µM.
`Clc1ccc2[nH]c(-c3ccccc3)nc2c1`: the IC50 was greater than 10 µM at 5-LO enzyme (setting [5]) and 0.7 µM in test [1] (setting [7]).
Take `COc1ccc(/C=C/C(=O)c2cccs2)cc1` [drawing 31 (R2=H, R3=4-OCH3, Het=drawing 32)]: the IC50 at 5-LO enzyme (Table 3, styrenes, read-out: 5-LO IC50) was greater than 10 µM; in test [1] (Table 3, styrenes, read-out: 15-LO IC50), 1.6 µM.
Turning to `Clc1ccc2c(c1)Nc1c(ccc3ccccc13)S2`, the IC50 at 5-LO enzyme (Table 5, read-out: 5-LO IC50) is greater than 30 µM; in test [1] (Table 5, read-out: 15-LO IC50) it was 2 µM.
As to `COc1ccc2[nH]c3c(c2c1)CCc1ccccc1-3`, in test [1] (setting [8]), the IC50 was greater than 25 µM.
Take `c1ccc2c(c1)ccc1c3ccccc3[nH]c21`: the IC50 at 5-LO enzyme (Table 5, read-out: 5-LO IC50) was greater than 10 µM; in test [1], 1.5 µM.
As to `COc1ccc2[nH]c3c(c2c1)CSc1ccccc1-3`, the IC50 at 5-LO enzyme (setting [9]) was greater than 10 µM; in test [1] (setting [8]), 0.6 µM.
The matching figures for `COc1ccc2[nH]c3c4ccccc4[s+]cc3c2c1`: greater than 9.6 µM and 0.7 µM.
For `Clc1ccc2[s+]cc3c4ccccc4[nH]c3c2c1` [drawing 19 (R2=H, R3=H, R4=Cl, R5=H, R8=H)], the IC50 in test [1] (setting [8]) was 12 µM.
Take `c1csc(-c2csc(-c3nc4ccccc4[nH]3)n2)c1` [drawing 26 (R2=H, R3=H, R10=H, R11=drawing 27)]: the IC50 on 5-LO enzyme (setting [5]) was greater than 10 µM; in test [1] (setting [7]), 1.5 µM.
Take `O=C(Cc1c[nH]c2ccccc12)Nc1ccccc1`: the IC50 is greater than 10 µM on 5-LO enzyme (setting [3]) and 1.5 µM in test [1] (setting [4]).
As to `COc1ccc2c3c([nH]c2c1)-c1ccccc1SC3`, the IC50 is greater than 50 µM on 5-LO enzyme (setting [9]) and 4.5 µM in test [1] (setting [8]).
Consider `COc1ccc2c(c1)[nH]c1c3ccccc3[s+]cc21`, for which the IC50 in test [1] (setting [8]) is 26 µM.
Same read-out and setting: the value for `Cc1ccc2[s+]cc3c4ccccc4[nH]c3c2c1` [drawing 19 (R2=H, R3=H, R4=CH3, R5=H, R8=H)] was 1.9 µM; that for `COc1ccc2[nH]c3c4ccccc4ncc3c2c1` was greater than 25 µM.
